Source: patent US20230055705A1, “SUBSTITUTED THIOPHENE CARBOXAMIDES AND DERIVATIVES THEREOF” (Bayer Aktiengesellschaft, priority 2019, published 2023)

Assays:
[1] = system: salicylate responsive promoter sequence of the PR1 (pathogenesis-related protein I) gene (AT2G14610); assay: Induction of defense gene expression in Arabidopsis thaliana (PR1 promoter-GFP reporter plants); type: in vivo; conditions: Arabidopsis thaliana, 72 h, 3rd day after spraying, mock treated leaves set as 1.00, read-out: relative fluorescence value; for fold induction at 75 ppm: 75 ppm of compound
Procedure, shortened: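 Transgenic A. thaliana carrying GFP under the salicylate-responsive PR1 promoter, grown five days, then sprayed with compounds. Whole-plant fluorescence imaged and quantified on day 3 post-spray, expressed relative to mock-treated leaf background set at 1.00.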

[2] = system: Colletotrichum lindemuthianum; assay: In vivo preventive test on Colletotrichum lindemuthianum (Antrachnose on bean); conditions: 144 h, inoculation 72 h after spraying, evaluated 6 days after inoculation, read-out: efficacy; for pest or weed control at 500 ppm: 500 ppm of active ingredient; for pest or weed control at 31 ppm: 31 ppm of active ingredient
Procedure, shortened: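 Young bean plants sprayed preventively with compound in acetone/DMSO/Tween diluted in water, then spore-inoculated 72 h later. Incubation 24 h at 20° C./100% RH, then 5 days at 20° C./90% RH; scored 6 days post-inoculation as % efficacy (0% = solvent-treated control, 100% = no disease).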

[3] = system: Pseudomonas syringae pv. tomato; assay: In vivo preventive test on Pseudomonas syringae pv. tomato (bacterial speck on tomato); conditions: evaluated 5 or 6 days after inoculation, read-out: efficacy; for pest or weed control at 31 ppm: 31 ppm of active ingredient; for pest or weed control at 500 ppm: 500 ppm of active ingredient
Procedure, shortened: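 Young tomato plants sprayed with compound in acetone/DMSO/Tween diluted in water; solvent-only controls. Inoculated 72 h later by spraying leaves with bacterial suspension; 4 days saturated atmosphere then 1–2 days at 70–80% RH, 22 °C day/20 °C night. Efficacy scored 5–6 days post-inoculation, 0% = control, 100% = no disease.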

C[C@H](NC(=S)c1sc(Cl)c(Cl)c1Cl)C(=O)O [I.113] was tested, and the fold induction at 75 ppm [1] was greater than 2, the fold induction at 300 ppm [1] was greater than 2 and the pest or weed control at 500 ppm [2] was 90 to 100%.

Compound COC(=O)C(CC(F)F)NC(=O)c1sc(Cl)c(Cl)c1Cl (stereo not drawn) [I.016] has a fold induction at 75 ppm [1] greater than 2, a fold induction at 300 ppm [1] greater than 2 and a pest or weed control at 31 ppm [2] of 80 to 89%. The pest or weed control at 500 ppm [2] was 90 to 100%, the pest or weed control at 31 ppm [3] was 70 to 79% and the pest or weed control at 500 ppm [3] was 90 to 100%.

In the case of CCOC(=O)C(CSC)NC(=O)c1sc(Cl)c(Cl)c1Cl (stereo not drawn) [I.143], the fold induction at 75 ppm [1] is reported as greater than 2, the fold induction at 300 ppm [1] is reported as greater than 2 and the pest or weed control at 31 ppm [2] is reported as 70 to 79%. It also gave a pest or weed control at 31 ppm [3] of 90 to 100%.

COC(=O)[C@H](CCCNC(=N)N)NC(=O)c1sc(Cl)c(Cl)c1Cl [I.008] showed a fold induction at 75 ppm [1] greater than 2, a fold induction at 300 ppm [1] greater than 2 and a pest or weed control at 500 ppm [3] of 70 to 79%.

COC(=O)[C@H](CSC(=O)N(C)C)NC(=O)c1sc(Cl)c(Cl)c1Cl [I.142] was tested, and the fold induction at 75 ppm [1] was greater than 2, the fold induction at 300 ppm [1] was greater than 2 and the pest or weed control at 31 ppm [2] was 80 to 89%. The pest or weed control at 31 ppm [3] was 70 to 79%.

COC(=O)C[C@H](NC(=O)c1sc(Cl)c(Cl)c1Cl)C(=O)OC [I.144] gave a fold induction at 75 ppm [1] greater than 2, a fold induction at 300 ppm [1] greater than 2 and a pest or weed control at 31 ppm [2] of 80 to 89%. For the same compound, the pest or weed control at 31 ppm [3] was 80 to 89%.

With O=C(O)CNC(=S)c1sc(Cl)c(Cl)c1Cl [I.022, N-[(3,4,5-trichloro-2-thienyl)carbonothioyl]glycine] the fold induction at 75 ppm [1] was greater than 2, the pest or weed control at 31 ppm [2] was 70 to 79% and the pest or weed control at 500 ppm [2] was 90 to 100%. For the same compound, the pest or weed control at 500 ppm [3] was 90 to 100%.

Work on CCOC(=O)C(CC(F)(F)F)NC(=O)c1sc(Cl)c(Cl)c1Cl (stereo not drawn) [I.048] yielded a fold induction at 75 ppm [1] greater than 2, a fold induction at 300 ppm [1] greater than 2 and a pest or weed control at 500 ppm [2] of 80 to 89%. It also gave a pest or weed control at 500 ppm [3] of 70 to 79%.

In the case of CCOC(=O)C(C#N)NC(=O)c1sc(Cl)c(Cl)c1Cl (stereo not drawn) [I.009], the fold induction at 75 ppm [1] is reported as greater than 2, the fold induction at 300 ppm [1] is reported as greater than 2 and the pest or weed control at 500 ppm [2] is reported as 90 to 100%. For the same compound, the pest or weed control at 500 ppm [3] was 90 to 100%.

COC(=O)CNC(=S)c1sc(Cl)c(Cl)c1Cl [I.038, methyl N-[(3,4,5-trichloro-2-thienyl)carbonothioyl]glycinate] gave a fold induction at 300 ppm [1] greater than 2, a pest or weed control at 31 ppm [2] of 90 to 100% and a pest or weed control at 500 ppm [2] of 90 to 100%. It also gave a pest or weed control at 500 ppm [3] of 70 to 79%.

Compound COC(=O)[C@H](CC(N)=O)NC(=O)c1sc(Cl)c(Cl)c1Cl [I.015] has a fold induction at 75 ppm [1] greater than 2, a fold induction at 300 ppm [1] greater than 2 and a pest or weed control at 31 ppm [3] of 80 to 89%.

For CCOC(=O)C(CC(N)=O)NC(=O)c1sc(Cl)c(Cl)c1Cl (stereo not drawn) [I.046], the fold induction at 75 ppm [1] was greater than 2, the fold induction at 300 ppm [1] was greater than 2 and the pest or weed control at 31 ppm [2] was 80 to 89%. For the same compound, the pest or weed control at 500 ppm [2] was 90 to 100%.

COC(=O)C(Cc1c[nH]cn1)NC(=O)c1sc(Cl)c(Cl)c1Cl (stereo not drawn) [I.012] gave a fold induction at 75 ppm [1] greater than 2, a fold induction at 300 ppm [1] greater than 2 and a pest or weed control at 500 ppm [2] of 90 to 100%. It also gave a pest or weed control at 31 ppm [3] of no less than 70%.

With C[C@H](NC(=O)c1sc(Cl)c(Cl)c1Cl)C(N)=O [I.119] the fold induction at 75 ppm [1] was greater than 2, the fold induction at 300 ppm [1] was greater than 2 and the pest or weed control at 31 ppm [2] was 70 to 79%. The pest or weed control at 500 ppm [2] was 90 to 100%, the pest or weed control at 31 ppm [3] was 70 to 79% and the pest or weed control at 500 ppm [3] was 90 to 100%.
